The test relates to single oligonucleotide with a low probability of self-hybridization (ssDNA) (DNA, single strand) GAACAACGCTCCAACCATCGC
Description: absorption and fluorescence titration. To be noted: 3 µM DOX; absorption changes, fluorescence hardly quenched.

Molecules are shown by their SMILES.

As to `COc1cccc2c1C(=O)c1c(O)c3c(c(O)c1C2=O)C[C@@](O)(C(=O)CO)C[C@@H]3O[C@H]1C[C@H](N)[C@H](O)[C@H](C)O1`, the binding entry is listed as “weak”.

These data come from paper PMC8034656 (2021).
